From ChEMBL document CHEMBL1130480, “Structure-activity relationship of cantharidin derivatives to protein phosphatases 1, 2A1, and 2B” (Bioorg Med Chem Lett, 1997)

What was measured:
Oryctolagus cuniculus [1] = organism: Oryctolagus cuniculus; assay: Inhibition of Protein phosphatase 2A1 (PP2A1) at 1 mM
Oryctolagus cuniculus [2] = organism: Oryctolagus cuniculus; assay: Inhibition of Protein phosphatase 2A1 (PP2A1) at 0.1 mM
Bos taurus [3] = organism: Bos taurus; assay: Inhibition of Protein phosphatase 2B (PP2B) at 0.1 mM
Oryctolagus cuniculus [4] = organism: Oryctolagus cuniculus; assay: Inhibition of Protein phosphatase 1 at 0.1 mM
Bos taurus [5] = organism: Bos taurus; assay: Inhibition of Protein phosphatase 2B (PP2B) at 1 mM
Oryctolagus cuniculus [6] = organism: Oryctolagus cuniculus; assay: Inhibition of Protein phosphatase 1 at 1 mM

Row | Compound | inhibition (Oryctolagus cuniculus [1]) | inhibition (Oryctolagus cuniculus [2]) | inhibition (Bos taurus [3]) | inhibition (Oryctolagus cuniculus [4]) | inhibition (Bos taurus [5]) | inhibition (Oryctolagus cuniculus [6])
1 | CC(=O)OCC1=CC2OC1C1C(=O)OC(=O)C21 (centres undefined) | 98% | 60% | 25% | 59% | 90% | 92%
2 | CC12CCC(C)(O1)C(C(=O)O)C2C(=O)O (centres undefined) | 2% | 0% | 17% | 0% | 18% | 1%
3 | O=C1OC(=O)C2C3OC(CC3COC3CCCCC3)C12 (centres undefined) | 100% | 75% | 40% | 70% | 100% | 90%
4 | CC(=O)OCC12C=CC(O1)C(C(=O)O)C2C(=O)O (centres undefined) | 25% | 0% | 10% | 5% | 60% | 40%
5 | CC(=O)OCC1=CC2OC1C(C(=O)O)C2C(=O)O (centres undefined) | 90% | 40% | 20% | 50% | 89% | 80%
6 | CC(=O)OCC12CCC(O1)C1C(=O)OC(=O)C12 (centres undefined) | 50% | 5% | 30% | 20% | 45% | 70%
7 | O=C1OC(=O)C2C3C=CC(O3)C12 (centres undefined) | 95% | 95% | 40% | 95% | 99% | 98%
8 | O=C1OC(=O)C2C3OC(C=C3COC3CCCCC3)C12 (centres undefined) | 100% | 80% | 30% | 50% | 70% | 60%
9 | CC(=O)OCC12C=CC(O1)C1C(=O)OC(=O)C12 (centres undefined) | 40% | 5% | 10% | 5% | 50% | 30%
10 | C[C@@]12C(=O)OC(=O)[C@]1(C)C1CCC2O1 | 98% | 85% | 15% | 85% | 38% | 90%
11 | O=C1OC(=O)C2C1C1C=CC2(CO)O1 (centres undefined) | 12% | 5% | 10% | 8% | 50% | 18%
12 | O=C1OC(=O)C2C3CCC(O3)C12 (centres undefined) | 100% | 94% | 35% | 95% | 98% | 100%
13 | CC(=O)OCC1CC2OC1C1C(=O)OC(=O)C21 (centres undefined) | 98% | 70% | 20% | 90% | 85% | 100%
14 | O=C(O)C1C2CCC3(COC(=O)C13)O2 (centres undefined) | 8% | 8% | 18% | 9% | 20% | 20%
